Measured values published in PMC9964746, “Mechanism of Action and Structure–Activity Relationships of Tetracyclic Small Molecules Acting as Universal Positive Allosteric Modulators of the Cholecystokinin Receptor” (Membranes, 2023).
Where “and” joins values, the source holds several entries; their conditions need not be identical. Equal values may be shown once.

Experiments:
Type in all cases: cell-based
[1] = molecular target: T1, vasopressin-2 receptor (AVP2R) (Homo sapiens, UniProt P30518); assay: AVP2R cAMP HTRF accumulation assay; conditions: CHO-K1 AVP2R cells; for AVP2R PAM (cAMP) Score (activity score = normalized Emax × pEC50): PAM format; for EC50 / Emax: PAM format with vasopressin, original hits: agonist and PAM data combined, average ± SD
T1 construct: expressed in transfected cells; host or cells: CHO-K1 (PAM format); HEK-293 (agonist format)
T1 sequence (P30518 whole entry): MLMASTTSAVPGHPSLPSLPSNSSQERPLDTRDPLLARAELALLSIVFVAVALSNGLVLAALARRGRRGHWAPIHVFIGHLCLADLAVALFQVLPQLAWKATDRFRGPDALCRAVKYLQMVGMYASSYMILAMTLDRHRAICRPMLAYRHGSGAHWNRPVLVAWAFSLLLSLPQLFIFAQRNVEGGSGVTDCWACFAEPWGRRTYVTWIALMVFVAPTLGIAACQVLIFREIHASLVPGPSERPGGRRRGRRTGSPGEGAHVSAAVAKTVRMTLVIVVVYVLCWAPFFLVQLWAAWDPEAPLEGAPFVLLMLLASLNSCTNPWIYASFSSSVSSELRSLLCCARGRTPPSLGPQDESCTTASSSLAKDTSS
Experimental: Possible off-target biological effects. […] Here, we tested them at the vasopressin-2 receptor (AVP2R), representing a class A GPCR structurally related to CCK1R, which is coupled to Gs. The activity at AVP2R was tested using AVP2R-overexpressing CHO-K1 (PAM format) or HEK-293 (agonist format) cells, stimulating the cells with vasopressin. Original hits were tested in both agonist and PAM formats. Since all recognized compound responses were present in both formats, we continued to screen analogs in only the PAM format (also able to capture agonist effects) in CHO-K1 AVP2R cells for potential enhanced sensitivity. The dose–response data sets for original hits were combined, as the PAM and agonist effects were indistinguishable. In brief, arginine vasopressin (AVP) orthosteric stimulator dilutions and ligand and compound dose–response titrations in DMSO were transferred onto a 1536-well plate (Corning #3725) using an Echo liquid handler (Labcyte). Thawed cryopreserved cell stocks were diluted in stimulation buffer consisting of HBSS (Hank’s Balanced Salt Solution with Ca^2+ and Mg^2+, Gibco #24020117), 5 mM HEPES (hydroxyethyl piperazineethanesulfonic acid), 0.5 mM IBMX (3-isobutyl-1-methylxanthine, Sigma-Aldrich), and 0.075% BSA (7.5% DTPA-purified bovine serum albumin, PerkinElmer). The resulting cell suspension was added to the microplate and incubated with test compounds at room temperature for 30 min. Then, the detection reagents from the Cisbio cAMP Gs Dynamic HTRF detection kit were added. The plate was kept at room temperature for 30 min and read on a PHERAstar FSX microplate reader. Dose–response curves were performed as 16-point 2-fold dilutions in duplicate in at least two independent experiments.

[2] = molecular target: T2, CCK1R (Homo sapiens, UniProt P32238); assay: IP-One accumulation TR-FRET assay, PAM format, HEK-293 CCK1R cells; parameters: expressed in transfected cells; host or cells: HEK-293; conditions: for Emax: HEK293, relative to CCK control; for Emax / CCK1R PAM (IP-One) Score (activity score = normalized Emax × pEC50) / EC50: HEK-293 CCK1R cells; for Emax / CCK1R PAM (IP-One) Score (activity score = normalized Emax × pEC50): PAM format; for Emax / EC50: average ± SD; for EC50: PAM format with EC20 CCK; for CCK1R IP-One activity (in words): PAM and agonist formats
T2 sequence (P32238 1-428): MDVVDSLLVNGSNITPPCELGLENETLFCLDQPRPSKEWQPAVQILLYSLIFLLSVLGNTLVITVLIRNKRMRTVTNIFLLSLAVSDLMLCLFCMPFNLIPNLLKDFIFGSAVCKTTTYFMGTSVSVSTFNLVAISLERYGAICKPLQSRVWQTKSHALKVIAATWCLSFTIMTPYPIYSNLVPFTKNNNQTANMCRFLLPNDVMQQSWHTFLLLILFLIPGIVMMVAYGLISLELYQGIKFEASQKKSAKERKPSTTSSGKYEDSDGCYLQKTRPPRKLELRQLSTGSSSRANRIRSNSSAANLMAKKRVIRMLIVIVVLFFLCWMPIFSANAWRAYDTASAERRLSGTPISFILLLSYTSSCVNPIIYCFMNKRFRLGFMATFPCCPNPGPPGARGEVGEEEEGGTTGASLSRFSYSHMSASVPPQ
Experimental: (§1) For structure–activity relationship studies, we performed myo-inositol-1-phosphate (IP-One) accumulation assays with TR-FRET technology applied to the HEK-293 cell line overexpressing CCK1Rs, as we had described in our high throughput screening effort. In brief, thawed cryopreserved cell stocks were re-suspended in IP-One assay media consisting of phenol-red free DMEM (Corning, Corning, NY, USA, #17-205-CV) with 10% FBS, 1% penicillin (10,000 units)/streptomycin (10 mg) (Pen/Strep, Thermo Fisher Scientific, Waltham, MA, USA, Gibco #15140122), and 1% L-glutamine (200 mM) (Gibco #25030081) and diluted to required cell densities. Then, the cell suspension was dispensed into a 1536-well tissue culture microplate (Corning, #3727), and the plate was incubated overnight at 37 °C and 5% CO^2. After 16–20 h, DMSO or compounds were added with an Echo liquid handler (Labcyte, San Jose, CA, USA), resulting in a top final compound concentration of 50 µM diluted 2-fold for 16-point dose–responses. For the positive allosteric modulator (PAM) format, orthosteric stimulator (CCK) dilutions for control wells were prepared in assay media containing 150 mM lithium chloride (LiCl, 50 mM final, Sigma-Aldrich, St Louis, MO, USA, #L7026). After a 30 min incubation of test compounds at 37 °C and 5% CO2, orthosteric stimulator dilutions (for PAM format) or equivalent dilutions of DMSO (for agonist format) were added to designated wells using BioRaptr (Beckman Coulter, Brea, CA, USA). In addition, CCK control ligand dilutions were included on each test plate. After that, the plate was incubated for 1 h at 37 °C and 5% CO^2 and equilibrated to room temperature. Detection reagents from the IP-One Gq detection kit from Cisbio (Cisbio US Inc., Bedford, MA, USA, #62IPAPEJ) were added, and after 1 h at RT, IP-One content was measured with a PHERAstar FSX microplate reader (BMG Labtech, Ortenberg, Germany). Control ligand dose–responses were analyzed using GraphPad Prism 9.3.1 (San Diego, CA, USA) to validate adequate control and test well concentrations for positive allosteric modulation (PAM) and agonist formats. Dose–response curves were performed as 16-point 2-fold dilutions in duplicates in at least three independent experiments. Large data sets were uploaded and analyzed with CBIS (Chemical and Biology Information System software, ChemInnovation Software, Inc., San Diego, CA, USA). Further data analysis for detailed SAR studies was conducted using the D360 software (Certara).
(§2) The potency and efficacy data for these compounds were used to calculate their activity scores using the following formula: Activity Score = normalized Emax × pEC50. Normalized Emax represents the efficacy of the compound as a fractional response relative to that of the CCK control ligand. pEC50 represents the positive logarithmic value of compound EC50 concentrations in (M).

[3] = molecular target: T2, CCK1R; assay: IP-One accumulation TR-FRET assay, agonist format, HEK-293 CCK1R cells; parameters: expressed in transfected cells; host or cells: HEK-293; conditions: for Emax: HEK293, relative to CCK control, read-out: CCK1R Ago (IP-One) Emax; for Emax / EC50: average ± SD; for EC50: read-out: CCK1R Ago (IP-One) EC50
Experimental: as §1, §2

AVP2R PAM (cAMP) Score (activity score = normalized Emax × pEC50) [1]	EC50 [1]	Emax [1]	Emax [2]	CCK1R PAM (IP-One) Score (activity score = normalized Emax × pEC50) [2]	EC50 [2]	CCK1R Ago (IP-One) Score (activity score = normalized Emax × pEC50) [3]	Emax [3]	EC50 [3]	CCK1R IP-One activity (in words) [2]	Compound
1.7 and 1.74	22.8 ± 3.8 µM	37 ± 4%	45 ± 23%	1.9	23.8 ± 10.5 µM	0	–	–	–	CC(C)Cc1nc2oc3c(NCCN(C)C)ncnc3c2c2c1CCC2 [CMP-21]
3.0 and 2.97	4.7 ± 4.1 µM	56 ± 33%	44 ± 10%	2.17	8.9 ± 1.7 µM	0.72	17 ± 5%	29.7 ± 8 µM	–	CN(C)CCNc1ncnc2c1sc1nc(-c3ccccc3)c3c(c12)CCCC3 [CMP-14]
1.2	12.8 ± 14 µM	24.5 ± 7.1%	62 ± 33%	2.71	14.4 ± 1.5 µM	0	0%	–	–	CN(C)CCNc1ncnc2c1sc1nc(N3CCOCC3)c3c(c12)CCCC3 [CMP-4]
1.60	21 ± 6.5 µM	34 ± 1%	35 ± 19%	1.51	18.8 ± 7.7 µM	0	–	–	–	CCN(CC)CCNc1ncnc2c1oc1nc(CC(C)C)c3c(c12)CCC3 [CMP-33]
1.4 and 1.35	12.6 ± 7.9 µM	28 ± 14%	52 ± 36%	2.2 and 2.23	11.2 ± 4.2 µM	0	–	–	–	CC(C)Cc1nc2oc3c(NCCCN(C)C)ncnc3c2c2c1CCC2 [CMP-13]
2.9 and 2.93	3.1 ± 1.3 µM	53 ± 3%	38 ± 13%	1.86	9.6 ± 3.6 µM	1.85	41 ± 1%	30 ± 4.9 µM	–	CN(C)CCCNc1nnnc2c1sc1nc(N3CCCCC3)c3c(c12)CCCC3 [CMP-23]
0.93	22.3 ± 7.2 µM	20%	–	–	–	0	0%	–	displayed no effects	CC(Sc1ncnc2c1sc1nc(N3CCOCC3)c3c(c12)CCCC3)C(=O)O (stereo not drawn) [CMP-59]
1.41	6.1 ± 2.8 µM	27 ± 20%	25 ± 10%	1.32	3.3 ± 5.4 µM	0	–	–	–	CCCc1nc2oc3c(NCCCN(CC)CC)ncnc3c2c2c1CCCC2 [CMP-36]
0	–	0%	0%	0	–	0	0%	–	displayed no effects	C/C(Br)=C\CSc1ncnc2c1sc1nc(N3CCOCC3)c3c(c12)CCCC3 [CMP-44]
1.6 and 1.61	6.5 ± 4.2 µM	31 ± 2%	48 ± 11%	2.4 and 2.39	8 ± 2.1 µM	0	–	–	–	CCCc1nc2sc3c(NCCN(CC)CC)ncnc3c2c2c1CCCC2 [CMP-7]

Compound	AVP2R PAM (cAMP) Score (activity score = normalized Emax × pEC50) [1]	EC50 [1]	Emax [1]	Emax [2]	CCK1R PAM (IP-One) Score (activity score = normalized Emax × pEC50) [2]	EC50 [2]	CCK1R Ago (IP-One) Score (activity score = normalized Emax × pEC50) [3]	Emax [3]	EC50 [3]	CCK1R IP-One activity (in words) [2]
C=CCNc1ncnc2c1sc1nc(N3CCOCC3)c3c(c12)CCCC3 [CMP-50]	0	–	0%	0%	0	–	0	0%	–	None of these analogs showed any CCK1R activity
